Source: patent US8513251B2, “Pyridazinone compounds” (Takeda Pharmaceutical Company Limited, priority 2009, dated 2013)
Where a name gives a salt, the structure may show the parent alone. Read-outs that look alike come from different tables or passages of the source.

Experiments:
[1] = target: T1, Human PDE10A enzyme (Homo sapiens, UniProt Q9Y233); experiment: PDE enzyme inhibition, SPA (Scintillation Proximity Assay); assay type: biochemical; settings: for inhibition at 1 µM: compound at 1 μM, read-out: Percent inhibition (1 μM); for IC50: human PDE10A, [3H]cGMP substrate
T1 construct: Human PDE10A enzyme was generated from Sf9 or COS-7 cells transfected with the full-length gene; His-tag; made in house; host or cells: Sf9 or COS-7 cells
Description: Human PDE10A enzyme was generated from Sf9 or COS-7 cells transfected with the full-length gene. Cloned enzyme was extracted from homogenized cell pellets. The extracted enzyme from Sf9 cells was partially purified using His-tag affinity column. The enzyme was stored at −70° C. until use. PDE activity was measured using a SPA (Scintillation Proximity Assay) (GE Healthcare). To evaluate the inhibitory activity, 10 μL of serial diluted compounds were incubated with 20 μL of PDE enzyme in assay buffer (50 mM HEPES-NaOH, 8.3 mM MgCl2, 1.7 mM EGTA, 0.1% BSA (pH 7.4)) for 30 min. at room temperature. Final concentration of DMSO in the assay was 1 percent as compounds were tested in duplicate in 96-well half-area plates (Corning). To start the reaction, 10 μL of substrate [3H] cGMP (25 or 50 nM; enclosed in SPA kits from GE Healthcare or purchased from PerkinElmer, respectively) was added for a final assay volume of 40 μL. After 60 min incubation at room temperature, yttrium SPA beads containing Zinc sulphate were added (20 μL at 6 mg/mL) to terminate the PDE reaction. After being settled for 60 min., assay plates were counted in a scintillation counter (PerkinElmer) to allow calculation of inhibition rate and IC50. Inhibition rate was calculated on the basis of 0% control wells with DMSO and 100% control wells without enzyme.

[2] = Table 1, compound at 0.1 μM as noted in cell, read-out: Percent inhibition (at 0.1 μM)

T1 sequence (Q9Y233 267-1055): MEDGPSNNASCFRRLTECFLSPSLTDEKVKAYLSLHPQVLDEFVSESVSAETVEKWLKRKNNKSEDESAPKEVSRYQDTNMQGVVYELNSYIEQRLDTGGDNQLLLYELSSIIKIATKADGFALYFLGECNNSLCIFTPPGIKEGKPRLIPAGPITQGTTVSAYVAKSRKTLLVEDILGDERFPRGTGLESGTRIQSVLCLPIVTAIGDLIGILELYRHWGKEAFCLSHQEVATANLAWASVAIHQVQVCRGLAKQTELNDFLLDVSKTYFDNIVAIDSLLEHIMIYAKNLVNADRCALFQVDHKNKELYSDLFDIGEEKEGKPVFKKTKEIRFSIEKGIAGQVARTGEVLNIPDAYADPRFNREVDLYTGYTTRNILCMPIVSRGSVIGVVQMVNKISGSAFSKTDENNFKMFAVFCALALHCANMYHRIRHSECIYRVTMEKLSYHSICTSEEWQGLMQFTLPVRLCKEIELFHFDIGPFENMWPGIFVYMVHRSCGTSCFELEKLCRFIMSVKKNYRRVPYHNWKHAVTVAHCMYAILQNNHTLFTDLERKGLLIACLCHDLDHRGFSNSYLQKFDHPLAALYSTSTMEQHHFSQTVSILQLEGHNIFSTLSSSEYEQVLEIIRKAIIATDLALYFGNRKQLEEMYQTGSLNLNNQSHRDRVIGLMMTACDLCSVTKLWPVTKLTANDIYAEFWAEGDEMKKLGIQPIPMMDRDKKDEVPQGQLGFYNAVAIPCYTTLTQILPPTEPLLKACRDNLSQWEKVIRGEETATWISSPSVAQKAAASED

| SMILES | melting point [°C] | inhibition at 1 µM ([1]; Table 1) [%] | IC50 ([1]; Table 1) [nM] | inhibition at 0.1 µM [1, 2] [%] | inhibition at 0.1 µM ([1]; Table 2, compound at 0.1 μM, read-out: Percent inhibition (0.1 μM)) [%] | IC50 ([1]; Table 2) [nM] |
| --- | --- | --- | --- | --- | --- | --- |
| O=c1ccn(-c2ccc(N3CCOCC3)cc2)nc1-c1ccnn1-c1ccccc1 [Example 23, 1-(4-Morpholin-4-ylphenyl)-3-(1-phenyl-1H-pyrazol-5-yl)pyridazin-4(1H)-one] | 205 to 206 | 102 | < 10 |  |  |  |
| O=c1ccn(-c2ccc(F)cc2)nc1-c1ccnn1-c1ccccc1 [Example 17, 1-(4-Fluorophenyl)-3-(1-phenyl-1H-pyrazol-5-yl)pyridazin-4(1H)-one] | 252 to 253 | 97 | 10 to 200 |  |  |  |
| O=c1ccn(-c2ccccc2Cl)nc1-c1ccnn1-c1ccccc1 [Example 32, 1-(2-Chlorophenyl)-3-(1-phenyl-1H-pyrazol-5-yl)pyridazin-4(1H)-one] | 138 to 139 | 89 | 10 to 200 |  |  |  |
| CS(=O)(=O)c1cccc(-n2ccc(=O)c(-c3ccnn3-c3ccccc3)n2)c1 [Example 36, 1-[3-(Methylsulfonyl)phenyl]-3-(1-phenyl-1H-pyrazol-5-yl)pyridazin-4(1H)-one] | 199 to 200 |  | < 10 | 90 |  |  |
| O=c1ccn(-c2cccnc2)nc1-c1ccnn1-c1ccccc1 [Example 30, 3-(1-Phenyl-1H-pyrazol-5-yl)-1-pyridin-3-ylpyridazin-4(1H)-one] | 176 to 177 |  | 10 to 200 | 87 |  |  |
| COc1cn(-c2ccccc2F)nc(-c2ccnn2-c2ccccc2)c1=O [Example 52, 1-(2-Fluorophenyl)-5-methoxy-3-(1-phenyl-1H-pyrazol-5-yl)pyridazin-4(1H)-one] | 163 to 165 | 99 | < 10 |  |  |  |
| O=c1ccn(-c2cccc(S(=O)(=O)c3nc4ccccc4[nH]3)c2)nc1-c1ccnn1-c1ccccc1 [Example 39, 1-[3-(1H-Benzimidazol-2-ylsulfonyl)phenyl]-3-(1-phenyl-1H-pyrazol-5-yl)pyridazin-4(1H)-one] | 160 to 161 | 98 | < 10 |  |  |  |
| COc1cn(-c2ccc(N3CCC3=O)cc2F)nc(-c2ccnn2-c2ccccc2)c1=O [Example 107, 1-[2-Fluoro-4-(2-oxoazetidin-1-yl)phenyl]-5-methoxy-3-(1-phenyl-1H-pyrazol-5-yl)pyridazin-4(1H)-one] | 189 to 194 |  |  |  | 104 | < 10 |
| O=c1ccn(-c2ccccc2OC(F)F)nc1-c1ccnn1-c1ccccc1 [Example 26, 1-[2-(Difluoromethoxy)phenyl]-3-(1-phenyl-1H-pyrazol-5-yl)pyridazin-4(1H)-one] | 123 to 124 | 97 | 10 to 200 |  |  |  |
| COc1cn(-c2ccc(N3CCOCC3)cc2F)nc(-c2ccnn2-c2ccccc2)c1=O [Example 57, 1-(2-Fluoro-4-morpholin-4-ylphenyl)-5-methoxy-3-(1-phenyl-1H-pyrazol-5-yl)pyridazin-4(1H)-one] | 226 to 228 | 101 | < 10 |  |  |  |
| COc1ccccc1-n1ccc(=O)c(-c2ccnn2-c2ccccc2)n1 [Example 13, 1-(2-Methoxyphenyl)-3-(1-phenyl-1H-pyrazol-5-yl)pyridazin-4(1H)-one] | 153 to 154 | 96 | 10 to 200 |  |  |  |
| O=c1ccn(-c2ccccc2F)nc1-c1ccnn1-c1ccccc1 [Example 16, 1-(2-Fluorophenyl)-3-(1-phenyl-1H-pyrazol-5-yl)pyridazin-4(1H)-one] | 124 to 125 | 97 | 10 to 200 |  |  |  |
| Cc1ccccc1-n1ccc(=O)c(-c2ccnn2-c2ccccc2)n1 [Example 19, 1-(2-Methylphenyl)-3-(1-phenyl-1H-pyrazol-5-yl)pyridazin-4(1H)-one] | 120 to 121 |  |  |  |  |  |
| Cc1cccc(-n2ccc(=O)c(-c3ccnn3-c3ccccc3)n2)c1 [Example 20, 1-(3-Methylphenyl)-3-(1-phenyl-1H-pyrazol-5-yl)pyridazin-4(1H)-one] | 115 to 116 |  |  |  |  |  |
| O=c1ccn(-c2cccc(F)c2)nc1-c1ccnn1-c1ccccc1 [Example 15, 1-(3-Fluorophenyl)-3-(1-phenyl-1H-pyrazol-5-yl)pyridazin-4(1H)-one] | 170 to 171 | 97 | 10 to 200 |  |  |  |
| Cn1cnc(-c2ccccc2)c1-c1nn(-c2cccc(C(F)(F)F)c2)ccc1=O [Example 84, 3-(1-Methyl-4-phenyl-1H-imidazol-5-yl)-1-[3-(trifluoromethyl)phenyl]pyridazin-4(1H)-one] | 214 to 216 |  |  |  |  |  |

More lines, now with the values ahead:

| melting point [°C] | inhibition at 1 µM ([1]; Table 1) [%] | IC50 ([1]; Table 1) [nM] | inhibition at 0.1 µM [1, 2] [%] | inhibition at 0.1 µM ([1]; Table 2, compound at 0.1 μM, read-out: Percent inhibition (0.1 μM)) [%] | IC50 ([1]; Table 2) [nM] | SMILES |
| --- | --- | --- | --- | --- | --- | --- |
| 139 to 141 | 100 | < 10 |  |  |  | COc1cn(-c2cccc(C(F)(F)F)c2)nc(-c2ccnn2-c2ccccc2)c1=O [Example 54, 5-Methoxy-3-(1-phenyl-1H-pyrazol-5-yl)-1-[3-(trifluoromethyl)phenyl]pyridazin-4(1H)-one] |
| 156 to 157 | 98 | 10 to 200 |  |  |  | O=c1ccn(-c2cccc(C(F)(F)F)c2)nc1-c1ccnn1-c1ccccc1 [Example 10, 3-(1-Phenyl-1H-pyrazol-5-yl)-1-[3-(trifluoromethyl)phenyl]pyridazin-4(1H)-one] |
| 109 to 114 | 94 | 10 to 200 |  |  |  | O=c1c(OC(F)F)cn(-c2ccccc2F)nc1-c1ccnn1-c1ccccc1 [Example 64, 5-(Difluoromethoxy)-1-(2-fluorophenyl)-3-(1-phenyl-1H-pyrazol-5-yl)pyridazin-4(1H)-one] |
| 189 to 192 |  |  |  |  |  | COc1cn(-c2cccc3cccnc23)nc(-c2ccnn2-c2ccccc2)c1=O [Example 88, 5-Methoxy-3-(1-phenyl-1H-pyrazol-5-yl)-1-quinolin-8-ylpyridazin-4(1H)-one] |
| 167 to 168 |  |  |  |  |  | Cc1cc(-c2nn(-c3cccc(C(F)(F)F)c3)ccc2=O)n(-c2ccccc2)n1 [Example 51, 3-(3-Methyl-1-phenyl-1H-pyrazol-5-yl)-1-[3-(trifluoromethyl)phenyl]pyridazin-4(1H)-one] |
| 246 to 248 |  |  |  |  |  | O=c1c(O)cn(-c2cccc(C(F)(F)F)c2)nc1-c1ccnn1-c1ccccc1 [Example 58, 5-Hydroxy-3-(1-phenyl-1H-pyrazol-5-yl)-1-[3-(trifluoromethyl)phenyl]pyridazin-4(1H)-one] |
| 146 to 147 |  |  |  |  |  | COc1ccccc1-n1nccc1-c1nn(-c2cccc(C(F)(F)F)c2)ccc1=O [Example 9, 3-[1-(2-Methoxyphenyl)-1H-pyrazol-5-yl]-1-[3-(trifluoromethyl)phenyl]pyridazin-4(1H)-one] |
| 108 to 110 |  |  |  |  |  | COc1cn(-c2ccc(OS(=O)(=O)C(F)(F)F)cc2F)nc(-c2ccnn2-c2ccccc2)c1=O (as salt: methanesulfonate) [Example 93, 3-Fluoro-4-[5-methoxy-4-oxo-3-(1-phenyl-1H-pyrazol-5-yl)pyridazin-1(4H)-yl]phenyl trifluoromethanesulfonate] |
